Measurements as given in US7662832B2, “Pyrrolo[2,3-c]pyridine derivatives and processes for the preparation thereof” (priority 2004, dated 2010).
pIC50: −log10 of the molar value. Structures can show the parent of a compound that is named as a salt.

Molecular target: Proton Pump (H^+/K^+-ATPase) (Sus scrofa, UniProt P19156)
Assay: Inhibitory effects on proton pump (H^+/K^+-ATPase) activity
Type: biochemical
Conditions: hog gastric vesicles; K^+ stimulated H^+/K^+-ATPase activity; 30 minutes at 37° C.

Chain of Proton Pump (H^+/K^+-ATPase) (P19156 2-1034 limits assumed): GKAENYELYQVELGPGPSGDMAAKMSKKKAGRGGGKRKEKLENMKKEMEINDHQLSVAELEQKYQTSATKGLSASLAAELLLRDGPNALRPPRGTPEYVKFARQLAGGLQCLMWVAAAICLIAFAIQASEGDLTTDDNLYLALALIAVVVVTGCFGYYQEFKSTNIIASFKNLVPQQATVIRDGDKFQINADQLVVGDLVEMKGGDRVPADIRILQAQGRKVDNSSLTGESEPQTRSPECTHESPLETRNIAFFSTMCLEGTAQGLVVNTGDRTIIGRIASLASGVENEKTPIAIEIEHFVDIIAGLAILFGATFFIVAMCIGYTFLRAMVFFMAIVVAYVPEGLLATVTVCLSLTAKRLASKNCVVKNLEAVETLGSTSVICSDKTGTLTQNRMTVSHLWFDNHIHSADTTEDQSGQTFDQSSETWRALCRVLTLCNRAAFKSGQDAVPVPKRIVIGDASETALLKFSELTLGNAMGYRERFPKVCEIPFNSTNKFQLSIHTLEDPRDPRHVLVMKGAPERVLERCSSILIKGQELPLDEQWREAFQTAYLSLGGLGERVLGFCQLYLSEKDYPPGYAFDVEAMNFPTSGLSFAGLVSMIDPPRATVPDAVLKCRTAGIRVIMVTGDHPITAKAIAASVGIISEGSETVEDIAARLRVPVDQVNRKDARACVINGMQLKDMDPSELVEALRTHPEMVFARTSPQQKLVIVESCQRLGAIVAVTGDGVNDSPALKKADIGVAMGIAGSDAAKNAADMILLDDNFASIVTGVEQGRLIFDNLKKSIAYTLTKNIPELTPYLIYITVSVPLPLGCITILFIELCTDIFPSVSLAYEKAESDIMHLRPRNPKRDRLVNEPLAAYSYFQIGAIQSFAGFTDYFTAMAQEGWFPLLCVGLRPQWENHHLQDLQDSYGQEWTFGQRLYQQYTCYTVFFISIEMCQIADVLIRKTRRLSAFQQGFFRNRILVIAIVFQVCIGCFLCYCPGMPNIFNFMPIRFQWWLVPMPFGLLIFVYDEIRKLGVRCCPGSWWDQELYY
Chain of Proton Pump (H^+/K^+-ATPase) (P18434 whole entry partner): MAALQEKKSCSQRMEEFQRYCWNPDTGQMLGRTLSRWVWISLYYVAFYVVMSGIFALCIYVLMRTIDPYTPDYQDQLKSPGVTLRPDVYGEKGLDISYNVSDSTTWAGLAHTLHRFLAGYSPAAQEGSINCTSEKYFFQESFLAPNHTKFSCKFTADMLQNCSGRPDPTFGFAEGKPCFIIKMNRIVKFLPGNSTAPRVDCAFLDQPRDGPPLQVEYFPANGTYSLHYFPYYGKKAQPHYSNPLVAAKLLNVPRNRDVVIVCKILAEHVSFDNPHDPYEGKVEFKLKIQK

| pIC50 | SMILES |
| --- | --- |
| 6.99 | Cc1c(C)n(Cc2ccccc2)c2c(N3CCc4ccccc4C3)nc(C(=O)N3CCOCC3)cc12 [Example 769, [1-benzyl-7-(3,4-dihydro-1H-isoquinolin-2-yl)-2,3-dimethyl-1H-pyrrolo[2,3-c]pyridin-5-yl]-(morpholin-4-yl)-methanone hydrochloride] |
| 6.37 | Cc1c(C)n(Cc2cccc(Cl)c2)c2c(N3CCc4ccccc4C3)nc(-c3nnn[nH]3)cc12 [Example 852, 2-[1-(3-chlorobenzyl)-2,3-dimethyl-5-(1H-tetrazol-5-yl)-1H-pyrrolo[2,3-c]pyridin-7-yl]-1,2,3,4-tetrahydroisoquinoline] |
| 6.96 | C=Cc1ccc(-c2nccc3c(C)c(C)n(Cc4ccccc4)c23)cc1 [Example 246, 1-benzyl-2,3-dimethyl-7-(4-vinylphenyl)-1H-pyrrolo[2,3-c]pyridine hydrochloride] |
| 5.94 | Cc1c(C)n(Cc2ccc(OC(F)(F)F)cc2)c2c(N3CCc4ccccc4C3)nccc12 [Example 479, 1-(4-trifluoromethoxybenzyl)-7-(1,2,3,4-tetrahydroisoquinolin-2-yl)-2,3-dimethyl-1H-pyrrolo[2,3-c]pyridine hydrochloride] |
| 6.26 | CNC(=O)c1cc2c(C)c(C)n(Cc3ccccc3)c2c(N2CCc3ccccc3C2)n1 [Example 772, 1-benzyl-7-(3,4-dihydro-1H-isoquinolin-2-yl)-2,3-dimethyl-N-methyl-1H-pyrrolo[2,3-c]pyridin-5-carboxamide hydrochloride] |
| 6.48 | Cc1c(C)n(Cc2cccc(F)c2)c2c(N3CCc4cc(F)ccc4C3C)nccc12 (centres unmarked) [Example 565, 6-fluoro-2-[1-(3-fluorobenzyl)-2,3-dimethyl-1H-pyrrolo[2,3-c]pyridin-7-yl]-1-methyl-1,2,3,4-tetrahydroisoquinoline hydrochloride] |
| 6.72 | Cc1c(C)n(Cc2ccc(C(C)(C)C)cc2)c2c(-c3ccc4ccccc4c3)nccc12 [Example 406, 1-(4-tert-butylbenzyl)-2,3-dimethyl-7-(naphthalen-2-yl)-1H-pyrrolo[2,3-c]pyridine hydrochloride] |
| 6.96 | Cc1c(C)n(Cc2cccc(Cl)c2)c2c(N3CCc4ccccc4C3)nc(C=O)cc12 [Example 863, 1-(3-chlorobenzyl)-7-(3,4-dihydro-1H-isoquinolin-2-yl)-2,3-dimethyl-1H-pyrrolo[2,3-c]pyridin-5-carbaldehyde] |
| 6.96 | CCn1c(C)c(C)c2ccnc(N3CCc4ccc(F)cc4C3C)c21 (centres unmarked) [Example 543, 2-(1-ethyl-2,3-dimethyl-1H-pyrrolo[2,3-c]pyridin-7-yl)-7-fluoro-1-methyl-1,2,3,4-tetrahydroisoquinoline hydrochloride] |
| 7.23 | COCCn1c(C)c(C)c2cc(C(=O)N3CCCCC3)nc(N3CCc4ccccc4C3)c21 [Example 792, [7-(3,4-dihydro-1H-isoquinolin-2-yl)-1-(2-methoxyethyl)-2,3-dimethyl-1H-pyrrolo[2,3-c]pyridin-5-yl]-(piperidin-1-yl)-methanone hydrochloride] |
| 7.40 | Cc1c(C)n(Cc2cccc(F)c2)c2c(N3CCc4ccccc4C3)nc(CNC(C)(C)C)cc12 [Example 869, N-[7-(3,4-dihydro-1H-isoquinolin-2-yl)-1-(3-fluorobenzyl)-2,3-dimethyl-1H-pyrrolo[2,3-c]pyridin-5-ylmethyl]-tert-butylamine hydrochloride] |

The remaining lines, values behind:

| SMILES | pIC50 |
| --- | --- |
| Cc1c(C)n(Cc2cccc(F)c2)c2c(N3CCc4ccccc4C3)nc(C(=O)n3ccnc3)cc12 [Example 840, [7-(3,4-dihydro-1H-isoquinolin-2-yl)-1-(3-fluorobenzyl)-2,3-dimethyl-1H-pyrrolo[2,3-c]pyridin-5-yl]-(imidazol-1-yl)-methanone hydrochloride] | 6.77 |
| C=CCCn1c(C)c(C)c2ccnc(NCc3ccccc3)c21 [Example 181, 7-benzylamino-1-(but-3-enyl)-2,3-dimethyl-1H-pyrrolo[2,3-c]pyridine hydrochloride] | 6.44 |
| Cc1c(C)n(Cc2ccccc2)c2c(CCc3ccccc3)nccc12 [Example 442, 1-benzyl-2,3-dimethyl-7-phenethyl-1H-pyrrolo[2,3-c]pyridine hydrochloride] | 7.00 |
| COc1cccc(Cn2c(C)c(C)c3cc(C(=O)n4ccnc4)nc(N4CCc5ccccc5C4)c32)c1 [Example 841, [7-(3,4-dihydro-1H-isoquinolin-2-yl)-1-(3-methoxybenzyl)-2,3-dimethyl-1H-pyrrolo[2,3-c]pyridin-5-yl]-(imidazol-1-yl)-methanone hydrochloride] | 6.62 |
| C=CCn1c(C)c(C)c2ccnc(-c3ccc(OC)cc3)c21 [Example 360, 1-allyl-7-(4-methoxyphenyl)-2,3-dimethyl-1H-pyrrolo[2,3-c]pyridine hydrochloride] | 6.56 |
| Cc1cccc(Cn2c(C)c(C)c3cc(C(=O)N4CCN(C)CC4)nc(N4CCc5ccccc5C4)c32)c1 [Example 820, [7-(3,4-dihydro-1H-isoquinolin-2-yl)-2,3-dimethyl-1-(3-methylbenzyl)-1H-pyrrolo[2,3-c]pyridin-5-yl]-(4-methylpiperazin-1-yl)-methanone hydrochloride] | 7.43 |
| Cc1ccc(Cn2c(C)c(C)c3ccnc(NCc4ccc(Cl)cc4)c32)cc1 [Example 221, 7-(4-chlorobenzylamino)-2,3-dimethyl-1-(4-methylbenzyl)-1H-pyrrolo[2,3-c]pyridine hydrochloride] | 6.20 |
| CCN1CCN(C(=O)c2cc3c(C)c(C)n(Cc4cccc(OC)c4)c3c(N3CCc4ccccc4C3)n2)CC1 [Example 824, [7-(3,4-dihydro-1H-isoquinolin-2-yl)-1-(3-methoxybenzyl)-2,3-dimethyl-1H-pyrrolo[2,3-c]pyridin-5-yl]-(4-ethylpiperazin-1-yl)-methanone hydrochloride] | 7.48 |
| Cc1c(C)n(Cc2ccccc2F)c2c(-c3ccc4ccccc4c3)nccc12 [Example 409, 1-(2-fluorobenzyl)-2,3-dimethyl-7-(naphthalen-2-yl)-1H-pyrrolo[2,3-c]pyridine hydrochloride] | 7.03 |
| Cc1c(C)n(CC(C)C)c2c(-c3ccc(Cl)cc3)nccc12 [Example 304, 7-(4-chlorophenyl)-1-isobutyl-2,3-dimethyl-1H-pyrrolo[2,3-c]pyridine hydrochloride] | 6.04 |
| Cc1ccc(-c2nccc3c(C)c(C)n(Cc4cccc(F)c4)c23)cc1 [Example 284, 2,3-dimethyl-1-(3-fluorobenzyl)-7-(p-tolyl)-1H-pyrrolo[2,3-c]pyridine hydrochloride] | 6.57 |
| Cc1c(C)n(Cc2ccccc2)c2c(N3CCc4ccccc4C3)nc(C(=O)N3CCNCC3)cc12 [Example 812, [1-benzyl-7-(3,4-dihydro-1H-isoquinolin-2-yl)-2,3-dimethyl-1H-pyrrolo[2,3-c]pyridin-5-yl]-(piperazin-1-yl)-methanone hydrochloride] | 7.68 |
| Cc1c(C)n(Cc2ccccc2)c2c(NCc3ccc(F)cc3)nc(C(=O)N3CCN(C)CC3)cc12 [Example 906, [1-benzyl-7-(4-fluorobenzylamino)-2,3-dimethyl-1H-pyrrolo[2,3-c]pyridin-5-yl]-(4-methylpiperazin-1-yl)-methanone hydrochloride] | 7.51 |
| Cc1c(C)n(Cc2ccc(C(F)(F)F)cc2)c2c(N3CCc4ccccc4C3)nccc12 [Example 500, 7-(1,2,3,4-tetrahydroisoquinolin-2-yl)-1-(4-trifluoromethylbenzyl)-2,3-dimethyl-1H-pyrrolo[2,3-c]pyridine hydrochloride] | 6.57 |
| Cc1c(C)n(Cc2ccc(Cl)cc2)c2c(CCc3ccccc3)nccc12 [Example 446, 1-(4-chlorobenzyl)-2,3-dimethyl-7-phenethyl-1H-pyrrolo[2,3-c]pyridine hydrochloride] | 6.41 |
| C=CCn1c(C)c(C)c2ccnc(N3CCc4ccccc4C3)c21 [Example 491, 1-allyl-7-(1,2,3,4-tetrahydroisoquinolin-2-yl)-2,3-dimethyl-1H-pyrrolo[2,3-c]pyridine maleate] | 8.70 |
| Cc1c(C)n(CC2CC2)c2c(N(C)Cc3ccc(F)cc3)nccc12 [Example 144, 1-cyclopropylmethyl-7-[N-(4-fluorobenzyl)-N-methyl]amino-2,3-dimethyl-1H-pyrrolo[2,3-c]pyridine hydrochloride] | 6.70 |
| CCC1c2ccccc2CCN1c1nccc2c(C)c(C)n(CCOC)c12 (centres unmarked) [Example 585, 1-ethyl-2-[1-(2-methoxyethyl)-2,3-dimethyl-1H-pyrrolo[2,3-c]pyridin-7-yl]-1,2,3,4-tetrahydroisoquinoline hydrochloride] | 6.43 |
| Cc1c(C)n(Cc2ccccc2)c2c(N3CCc4ccccc4C3)nc(C(=O)O)cc12 [Example 733, 1-benzyl-7-(3,4-dihydro-1H-isoquinolin-2-yl)-2,3-dimethyl-1H-pyrrolo[2,3-c]pyridin-5-carboxylic acid] | 6.93 |
| Cc1nc(Cn2c(C)c(C)c3ccnc(N4CCc5ccccc5C4C)c32)cs1 (centres unmarked) [Example 559, 2-[2,3-dimethyl-1-(2-methylthiazol-4-ylmethyl)-1H-pyrrolo[2,3-c]pyridin-7-yl]-1-methyl-1,2,3,4-tetrahydroisoquinoline hydrochloride] | 6.80 |
| CCCn1c(C)c(C)c2cc(C(=O)N3CCNCC3)nc(N3CCc4ccccc4C3)c21 [Example 813, [7-(3,4-dihydro-1H-isoquinolin-2-yl)-2,3-dimethyl-1-propyl-1H-pyrrolo[2,3-c]pyridin-5-yl]-(piperazin-1-yl)-methanone hydrochloride] | 7.96 |
| Cc1ccc(Cn2c(C)c(C)c3ccnc(C=Cc4ccccc4)c32)cc1 [Example 417, 2,3-dimethyl-1-(4-methylbenzyl)-7-styryl-1H-pyrrolo[2,3-c]pyridine hydrochloride] | 6.43 |
| Cc1ccc(Cn2c(C)c(C)c3ccnc(N(C)Cc4ccc(F)cc4)c32)cc1 [Example 152, 7-[N-(4-fluorobenzyl)-N-methyl]amino-2,3-dimethyl-1-(4-methylbenzyl)-1H-pyrrolo[2,3-c]pyridine hydrochloride] | 6.77 |
| CCC1c2ccccc2CCN1c1nccc2c(C)c(C)n(CC=C(C)C)c12 (centres unmarked) [Example 578, 2-[2,3-dimethyl-1-(3-methylbut-2-enyl)-1H-pyrrolo[2,3-c]pyridin-7-yl]-1-ethyl-1,2,3,4-tetrahydroisoquinoline hydrochloride] | 6.54 |
